From publication PMC10247784, “Physiological activation of human and mouse bitter taste receptors by bile acids” (Communications Biology, 2023)
Where “and” joins values, the source holds several entries; their conditions need not be identical. Identical values can stand only once.

Target: T1, human TAS2R14 (Homo sapiens, UniProt Q9NYV8)
T1 construct: expressed in transfected cells; host or cells: HEK293T-Gα16gust44
T1 sequence (Q9NYV8 1-317): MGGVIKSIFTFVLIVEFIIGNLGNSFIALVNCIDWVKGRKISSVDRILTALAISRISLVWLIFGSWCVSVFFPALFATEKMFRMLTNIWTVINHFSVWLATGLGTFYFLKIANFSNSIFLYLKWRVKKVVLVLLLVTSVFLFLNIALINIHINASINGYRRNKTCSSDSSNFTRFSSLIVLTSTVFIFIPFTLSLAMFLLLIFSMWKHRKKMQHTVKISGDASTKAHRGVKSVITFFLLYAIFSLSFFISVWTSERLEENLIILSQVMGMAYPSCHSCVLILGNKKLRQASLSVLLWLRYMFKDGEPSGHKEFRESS
Assay: Calcium imaging assay (FLIPR), HEK293T-Gα16gust44 cells transfected with human TAS2R14
Assay type: cell-based
Conditions: for RLU: TAS2R14 trace
Protocol: This set of bile acids was chosen because of their commercial availability in high purities, their diversity within the class of bile acids and their previous detection and quantitation in human blood. Stock solutions were prepared in DMSO.
As basal growth medium for the HEK293T-Gα16gust44 cell line[17],[59] served Dulbecco’s modified eagle medium (DMEM) (Thermo Fisher Scientific, Darmstadt, Germany) supplemented with 10 % fetal bovine serum (Sigma-Aldrich, Steinheim, Germany), 2 mM L-glutamine (Sigma-Aldrich, Steinheim, Germany), 100 units/ml penicillin (Sigma Aldrich, Steinheim, Germany) and 100 µg/ml streptomycin (Sigma Aldrich, Steinheim, Germany). Growth conditions were 37 °C, 5 % CO2 and saturated air-humidity[60].
HEK293T-Gα16gust44 cells were seeded on poly-D-lysine (10 µg/ml) coated 96-well plates to reach a confluence of 40-60 % the next day. For transient transfection 150 ng of plasmid DNA containing the receptor of interest and 0.3 µl lipofectamine 2000 (Thermo Fisher Scientific, Darmstadt, Germany) per well were used and transfection took place according to the manual of lipofectamine 2000. […] The empty vector DNA (mock) was transfected as negative control[14],[41].
Cells were loaded using the calcium-sensitive fluorescent dye Fluo-4-AM (Abcam, Cambridge, Great Britain) in the presence of 2.5 mM probenecid (Sigma-Aldrich, Steinheim, Germany) the day after transfection[13],[41]. 1 h after loading, cells were washed with C1 buffer using a BioTek Cell Washer, incubated in the dark for half an hour and washed again. For automated agonist application and measurement of fluorescence changes, a FLIPR^TETRA device (Molecular Devices, San José, United States) was used. Viability of cells was tested by application of 100 nM Somatostatin 14 (Bachem, Bubendorf, Switzerland)[42].
Measured data were negative control corrected by subtracting the signal of the mock-transfected cells and exported to Microsoft Excel using the FLIPR software ScreenWorks 4.2. In Microsoft Excel software, standardization of maximum fluorescence intensities to the basal fluorescence and normalization to the buffer-only control was done to calculate the relative fluorescence changes (ΔF/F).
Initial screening experiments performed in duplicate wells were confirmed by at least one replication and representative traces were selected for display. All dose-response relationships were determined by three independent experiments (biological replicates) performed in duplicates (technical replicates). Threshold concentrations, defined as lowest substance concentrations leading to statistically significant elevated fluorescence changes in receptor-transfected cells compared with empty vector-transfected cells, were determined using SigmaPlot with Student’s t-test to evaluate statistical significance (p < 0.01).

C[C@H](CCC(=O)NCCS(=O)(=O)O)[C@H]1CC[C@H]2[C@@H]3[C@H](O)C[C@@H]4C[C@H](O)CC[C@]4(C)[C@H]3C[C@H](O)[C@]12C [Taurocholic Acid, taurocholic acid]
Efficacy = maximal amplitude (ΔF/F) (TAS2R14, bile acids, mean): 0.2246 | Efficacy (maximal amplitude ΔF/F), individual data points (TAS2R14, bile acids, single replicates, listed as TCA): 0.1896 and 0.238 and 0.2462 | Δ F/F (TAS2R14, conc. 0,01 mM): -0.01734 | Δ F/F (TAS2R14, conc. 0,1 mM): -0.007315 | Δ F/F (TAS2R14, conc. 0,03 mM): -0.005139 | Δ F/F (TAS2R14, conc. 0,3 mM): 0.03332 | Δ F/F (TAS2R14, conc. 0,001 mM): -0.02529 | Δ F/F (TAS2R14, conc. 1 mM): 0.2246 | Δ F/F (TAS2R14, conc. 0,003 mM): -0.01812 | RLU (Time (s) 0): 0 RLU | RLU (Time (s) 2 (Taurocholic Acid 2.016)): 15.4574 RLU | RLU (Time (s) 4 (Taurocholic Acid 4.016)): -13.3747 RLU | RLU (Time (s) 6 (Taurocholic Acid 6.016)): -38.8354 RLU | RLU (Time (s) 8 (Taurocholic Acid 8.016)): -33.6332 RLU | RLU (Time (s) 12 (Taurocholic Acid 12.016)): -53.4595 RLU | RLU (Time (s) 14 (Taurocholic Acid 14.016)): -55.3521 RLU | RLU (Time (s) 16 (Taurocholic Acid 16.016)): -65.1913 RLU | RLU (Time (s) 18 (Taurocholic Acid 18.016)): -43.8232 RLU | RLU (Time (s) 18.797 (Chenodeoxycholic Acid 18.765)): -59.7397 RLU | RLU (Time (s) 20.797 (Chenodeoxycholic Acid 20.781)): -48.6104 RLU | RLU (Time (s) 22.797 (Chenodeoxycholic Acid 22.781)): -37.2936 RLU | RLU (Time (s) 24.797 (Chenodeoxycholic Acid 24.781)): -25.1873 RLU | RLU (Time (s) 26.797 (Chenodeoxycholic Acid 26.781)): -30.6749 RLU | RLU (Time (s) 28.797 (Chenodeoxycholic Acid 28.781)): 4.524 RLU | RLU (Time (s) 30.797 (Chenodeoxycholic Acid 30.781)): -8.18 RLU | RLU (Time (s) 32.797 (Chenodeoxycholic Acid 32.781)): 30.1537 RLU | RLU (Time (s) 34.797 (Chenodeoxycholic Acid 34.781)): 70.0865 RLU | RLU (Time (s) 36.797 (Chenodeoxycholic Acid 36.781)): 98.6425 RLU | RLU (Time (s) 38.797 (Chenodeoxycholic Acid 38.781)): 134.228 RLU | RLU (Time (s) 40.797 (Chenodeoxycholic Acid 40.781)): 192.709 RLU | RLU (Time (s) 42.797 (Chenodeoxycholic Acid 42.781)): 232.913 RLU | RLU (Time (s) 44.797 (Chenodeoxycholic Acid 44.781)): 243.453 RLU | RLU (Time (s) 46.797 (Chenodeoxycholic Acid 46.781)): 297.017 RLU | RLU (Time (s) 48.797 (Chenodeoxycholic Acid 48.781)): 343.953 RLU | RLU (Time (s) 50.797 (Chenodeoxycholic Acid 50.781)): 379.622 RLU | RLU (Time (s) 52.797 (Chenodeoxycholic Acid 52.781)): 398.833 RLU | RLU (Time (s) 54.797 (Chenodeoxycholic Acid 54.781)): 459.728 RLU | RLU (Time (s) 56.797 (Chenodeoxycholic Acid 56.781)): 470.92 RLU | RLU (Time (s) 58.797 (Chenodeoxycholic Acid 58.781)): 515.163 RLU | RLU (Time (s) 60.797 (Chenodeoxycholic Acid 60.781)): 529.36 RLU | RLU (Time (s) 62.797 (Chenodeoxycholic Acid 62.781)): 543.404 RLU | RLU (Time (s) 64.797 (Chenodeoxycholic Acid 64.781)): 572.542 RLU | RLU (Time (s) 66.797 (Chenodeoxycholic Acid 66.781)): 570.299 RLU | RLU (Time (s) 68.797 (Chenodeoxycholic Acid 68.781)): 602.865 RLU | RLU (Time (s) 70.797 (Chenodeoxycholic Acid 70.781)): 609.474 RLU | RLU (Time (s) 72.797 (Chenodeoxycholic Acid 72.781)): 663.572 RLU | RLU (Time (s) 74.797 (Chenodeoxycholic Acid 74.781)): 688.158 RLU | RLU (Time (s) 76.797 (Chenodeoxycholic Acid 76.781)): 696.58 RLU | RLU (Time (s) 78.797 (Chenodeoxycholic Acid 78.781)): 702.313 RLU | RLU (Time (s) 80.797 (Chenodeoxycholic Acid 80.781)): 724.676 RLU | RLU (Time (s) 82.797 (Chenodeoxycholic Acid 82.781)): 729.222 RLU | RLU (Time (s) 84.797 (Chenodeoxycholic Acid 84.781)): 755.668 RLU | RLU (Time (s) 86.797 (Chenodeoxycholic Acid 86.781)): 758.133 RLU
